Experimental data published in US8440612B2, “Controlling giardiosis” (Bayer Intellectual Property GmbH, priority 2008, dated 2013).
“And” between values parts separate entries of the source, which are not always exact repeats. Equal entries are not always repeated.

System: Giardia duodenalis
Assay: Giardia cyst excretion in infected Beagle puppies, oral dose on three successive days (Biological Example 2)
Type: in vivo
Procedure: Method: The quantitative determination of the cyst excretion was performed using a modified version of Hewlett (18): 4 g faeces were dissolved in 100 ml of water, sieved and allowed to sediment. The sediment was applied to a 1 M sucrose gradient (specific gravity 1.13), and the cysts, which were concentrated at the sucrose/water boundary layer after the centrifugation were pipetted off. After a wash step followed by centrifugation, the cysts in the pellet were counted. To this end, an aliquot of the pellet was counted under the microscope, and the number of cysts per g faeces was calculated.
Beagle puppies aged 11-15 weeks which had at least 2 weeks to settle in the animal centre before being infected were infected orally with 50 000 Giardia duodenalis cysts before the beginning of the study. The cysts for the infection were obtained with the aid of a sucrose gradient from the faeces of dogs which excreted Giardia cysts and stored at 4 degrees centigrade in Bacto-Casitone medium for no longer than 2 weeks. 18 puppies which excreted Giardia cysts were included in the study and kept in individual cages in order to collect the daily total faeces. The quantitative determination of the cyst excretion was performed as an […], with the modification that the aliquot of the pellet was counted under the microscope with the aid of a Fuchs-Rosenthal hematocytometer. The quantitative determination of the cyst excretion was performed for 4 days before the treatment (day −3 to 0), and the puppies were divided randomly into three groups, taking into consideration the cyst excretion. […] The 6 dogs of the control group remained untreated. The quantitative determination of the cyst excretion was continued from day 1 to day 8 after the treatment.

Structure (SMILES): COC(=O)Nc1nc2ccc(Sc3ccccc3)cc2[nH]1 [fenbendazole]
- Activity (calculated activity on cyst excretion versus infected untreated control, day 3 to 8, 50 mg/kg oral on days 0, 1 and 2, 50 mg/kg): 48.3%
- Σ Giardia cyst excretion D0 (group line Σ (6 dogs), D0, day of treatment, 50 mg/kg oral on days D0, D1 and D2): 20274 cysts per g faeces
- Σ Giardia cyst excretion D1 (group line Σ (6 dogs), D1, day of treatment, 50 mg/kg oral on days D0, D1 and D2): 17010 cysts per g faeces
- Σ Giardia cyst excretion D2 (group line Σ (6 dogs), D2, day of treatment, 50 mg/kg oral on days D0, D1 and D2): 1735 cysts per g faeces
- Σ Giardia cyst excretion D3 (group line Σ (6 dogs), D3, after the treatment, 50 mg/kg oral on days D0, D1 and D2): 13929 cysts per g faeces
- Σ Giardia cyst excretion D4 (group line Σ (6 dogs), D4, after the treatment, 50 mg/kg oral on days D0, D1 and D2): 12781 cysts per g faeces
- Σ Giardia cyst excretion D5 (group line Σ (6 dogs), D5, after the treatment, 50 mg/kg oral on days D0, D1 and D2): 7555 cysts per g faeces
- Σ Giardia cyst excretion D6 (group line Σ (6 dogs), D6, after the treatment, 50 mg/kg oral on days D0, D1 and D2): 5494 cysts per g faeces
- Σ Giardia cyst excretion D7 (group line Σ (6 dogs), D7, after the treatment, 50 mg/kg oral on days D0, D1 and D2): 12913 cysts per g faeces
- Σ Giardia cyst excretion D8 (group line Σ (6 dogs), D8, after the treatment, 50 mg/kg oral on days D0, D1 and D2): 4795 cysts per g faeces
- Σ Giardia cyst excretion D−1 (group line Σ (6 dogs), day −1, before treatment, 50 mg/kg oral on days D0, D1 and D2): 58990 cysts per g faeces
- Σ Giardia cyst excretion D−2 (group line Σ (6 dogs), day −2, before treatment, 50 mg/kg oral on days D0, D1 and D2): 22257 cysts per g faeces
- Σ Giardia cyst excretion D−3 (group line Σ (6 dogs), day −3, before treatment, 50 mg/kg oral on days D0, D1 and D2): 29963 cysts per g faeces
- Σ Giardia cyst excretion Day 3 to 8 (group, after treatment, 50 mg/kg oral on days 0, 1 and 2): 9578 cysts per g faeces
- Σ Giardia cyst excretion Day: −3 to 0 (group, before treatment, 50 mg/kg oral on days 0, 1 and 2): 32871 cysts per g faeces
- Giardia cyst excretion D0 (individual dogs, D0, day of treatment, 50 mg/kg oral on days D0, D1 and D2, 50 mg/kg): 49400 cysts per g faeces and 28559 cysts per g faeces and 639 cysts per g faeces and 2719 cysts per g faeces and 17037 cysts per g faeces and 23290 cysts per g faeces
- Giardia cyst excretion D1 (individual dogs, D1, day of treatment, 50 mg/kg oral on days D0, D1 and D2, 50 mg/kg): 67200 cysts per g faeces and 14596 cysts per g faeces and 872 cysts per g faeces and 12488 cysts per g faeces and 6178 cysts per g faeces and 723 cysts per g faeces
- Giardia cyst excretion D2 (individual dogs, D2, day of treatment, 50 mg/kg oral on days D0, D1 and D2, 50 mg/kg): 0 cysts per g faeces (2×) and 5980 cysts per g faeces and 3386 cysts per g faeces and 490 cysts per g faeces and 552 cysts per g faeces
- Giardia cyst excretion D3 (individual dogs, D3, after the treatment, 50 mg/kg oral on days D0, D1 and D2, 50 mg/kg): 67109 cysts per g faeces and 7043 cysts per g faeces and 961 cysts per g faeces and 3075 cysts per g faeces and 0 cysts per g faeces and 5388 cysts per g faeces
- Giardia cyst excretion D4 (individual dogs, D4, after the treatment, 50 mg/kg oral on days D0, D1 and D2, 50 mg/kg): 49423 cysts per g faeces and 652 cysts per g faeces and 439 cysts per g faeces and 12038 cysts per g faeces and 0 cysts per g faeces and 14133 cysts per g faeces
- Giardia cyst excretion D5 (individual dogs, D5, after the treatment, 50 mg/kg oral on days D0, D1 and D2, 50 mg/kg): 3116 cysts per g faeces and 18725 cysts per g faeces and 4432 cysts per g faeces and 0 cysts per g faeces (2×) and 19057 cysts per g faeces
- Giardia cyst excretion D6 (individual dogs, D6, after the treatment, 50 mg/kg oral on days D0, D1 and D2, 50 mg/kg): 4635 cysts per g faeces and 7546 cysts per g faeces and 5594 cysts per g faeces and 3691 cysts per g faeces and 0 cysts per g faeces and 11495 cysts per g faeces
- Giardia cyst excretion D7 (individual dogs, D7, after the treatment, 50 mg/kg oral on days D0, D1 and D2, 50 mg/kg): 17474 cysts per g faeces and 20780 cysts per g faeces and 260 cysts per g faeces and 18056 cysts per g faeces and 251 cysts per g faeces and 20657 cysts per g faeces
- Giardia cyst excretion D8 (individual dogs, D8, after the treatment, 50 mg/kg oral on days D0, D1 and D2, 50 mg/kg): 0 cysts per g faeces (2×) and 5555 cysts per g faeces and 5968 cysts per g faeces and 10875 cysts per g faeces and 6370 cysts per g faeces
- Giardia cyst excretion D−1 (individual dogs, day −1, before treatment, 50 mg/kg oral on days D0, D1 and D2, 50 mg/kg): 243143 cysts per g faeces and 56014 cysts per g faeces and 2349 cysts per g faeces and 16328 cysts per g faeces and 14744 cysts per g faeces and 21360 cysts per g faeces
- Giardia cyst excretion D−2 (individual dogs, day −2, before treatment, 50 mg/kg oral on days D0, D1 and D2, 50 mg/kg): 47754 cysts per g faeces and 23808 cysts per g faeces and 26526 cysts per g faeces and 18113 cysts per g faeces and 7230 cysts per g faeces and 10109 cysts per g faeces
